Results on 53 molecules are retold here after PubChem BioAssay (NCI).

Test systems include HS 578T breast; MDA-N; DLD-1 colon; XF 498 CNS; LXFL 529 NSCLC.
What all share (assay): NCI anticancer screen, dose series, 48 h

“And” between values parts separate entries of the source, which are not always exact repeats. Equal values may be shown once.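 Growth conditions: 96-well plates. Treatment: test compound, 48 hours, 5 concentrations. Analysis: linear interpolation between bracketing concentrations; unreached endpoints set to highest concentration. GI50: concentration for 50% inhibition of growth. Definition used: TGI = concentration required for complete inhibition of growth.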

Turning to `O=c1nc2oc3ccc4ccccc4c3cc-2s1`, in the assay with HS 578T breast, the GI50 was 0.528 µM and the TGI is more than 61.8 µM.
Turning to `COc1cccc(-n2ncc3c(N/N=C/c4ccncc4)ncnc32)c1`, in the assay on HS 578T breast, the GI50 is 0.322 µM and the TGI is more than 6.41 µM.
For `O=C(NN1C(=O)CSC12CCCC2)c1[nH]c2ccc(Br)cc2c1-c1ccccc1`, in the assay with HS 578T breast, the GI50 was 96.8 µM and the TGI is more than 100 µM.
On to `CN(C)c1ccc2c(c1)OC(N)=C(C#N)C2c1ccc2c(c1)CCO2` (centres undefined), for which, in the assay with HS 578T breast, the GI50 was 0.235 µM and the TGI is more than 100 µM.
For `CN1CC[C@@H](c2c(O)cc(O)c3c(=O)cc(-c4ccccc4Cl)oc23)[C@@H]1CO`, in the assay on HS 578T breast, the GI50 was 0.233 µM and the TGI was 1 µM.
Take `COc1cc([C@H]2OC[C@H]3[C@@H]2CO[C@@H]3c2cc(OC)c3c(c2)OCO3)cc(OC)c1OC`: the TGI in the assay with MDA-N and in the assay with HS 578T breast was more than 100 µM each time.
For `COc1cc(C(=O)NC2CCN(C)CC2)c(F)cc1Nc1ncc2c(n1)N(C1CCCC1)CC(F)(F)C(=O)N2C`, in the assay with HS 578T breast, the GI50 was less than 0.0342 µM and the TGI worked out at 10.4 µM.
As to `CC#CC(=O)SCCNC(=O)CC`, the TGI with MDA-N and with HS 578T breast was more than 10 µM throughout.
For `CCOc1ccccc1N=Nc1c(C)[nH]n(-c2nc(-c3ccccc3)cs2)c1=O`, in the assay with HS 578T breast, the GI50 is 29.2 µM and the TGI was more than 95.1 µM.
For `O=[N+]([O-])c1cccc([As]=[As]c2cccc([N+](=O)[O-])c2)c1` (centres undefined), in the assay on HS 578T breast, the GI50 is 0.098 µM and the TGI came to 0.498 µM.
For `N#CC(c1nc2ccccc2nc1Cl)S(=O)(=O)c1ccccc1` (centres undefined), the TGI in the assay with DLD-1 colon, in the assay with XF 498 CNS and in the assay on LXFL 529 NSCLC was more than 100 µM each time.
As for `C1=C2/CC[C@H](Sc3ccccc3)[C@H]2C2(CCCCC/1)OCCO2`, the TGI in the assay with DLD-1 colon and with LXFL 529 NSCLC was more than 100 µM throughout.
With `CC(C)(O)CC(=O)NCCn1ccc2ncnc(Nc3ccc(Oc4cccc(C(F)(F)F)c4)c(Cl)c3)c21`, in the assay with HS 578T breast, the GI50 is 4.6 µM and the TGI is more than 10 µM.
For the molecule `Cc1ccccc1NC(=O)C(=O)CC(=O)c1c(C)n([O-])c2ccccc2[n+]1=O`, the TGI in the assay with DLD-1 colon and in the assay on LXFL 529 NSCLC was more than 100 µM in each case.
Consider `CCCOC(=O)N1CCN(/[N+]([O-])=N/Oc2ccc([N+](=O)[O-])cc2[N+](=O)[O-])CC1`, for which, in the assay on HS 578T breast, the GI50 is 4.95 µM and the TGI turned out to be 50.9 µM.
For `CCN(CC)Cc1ccc(Nc2nccc(-c3cnn4ncccc34)n2)cc1`, in the assay with HS 578T breast, the GI50 is 0.0164 µM and the TGI was 0.117 µM.
On to `C/C=C(\C)C(=O)O[C@H]1C=CC(=O)O[C@@H]1CC[C@H](O)[C@H](C)O`, for which, in the assay with HS 578T breast, the GI50 is 34.8 µM and the TGI came out at 94.2 µM.
Turning to `O=C(c1ccccc1)c1cccc(C(=O)c2ccccc2)c1`, the TGI in the assay on DLD-1 colon, in the assay with XF 498 CNS and in the assay with LXFL 529 NSCLC was more than 100 µM each time.
For the molecule `Cc1ccc(N2C(=O)C3C=CC(n4[nH]c(=O)n(Cc5ccccc5)c4=O)CC3C2=O)cc1` (centres undefined), the TGI in the assay on DLD-1 colon, in the assay with XF 498 CNS and in the assay with LXFL 529 NSCLC was more than 100 µM each time.
For `C[C@]12CC[C@H]3[C@@H](CC[C@]4(O)C[C@@H](O)CC[C@]34/C=N/O)[C@@]1(O)CC[C@@H]2C1=COC(=O)C1`, the results for the TGI in the assay with MDA-N and in the assay with HS 578T breast were 1.03 µM and more than 100 µM, respectively.
On to `COC(=O)c1cc2ccc(OC(C)=O)c(OC(C)=O)c2cn1`, for which, in the assay on MDA-N, the GI50 was 2.03 µM; the TGI was 2.93 µM and 3.68 µM.
For the molecule `CN(C)c1ccc2nc3ccc(=[N+](C)C)cc-3sc2c1`, in the assay on HS 578T breast, the GI50 was 3.08 µM and 3.62 µM; the TGI is > 28.2 µM and 35.6 µM.
Take `COc1cc(C2C(Cl)C(=O)N2NC(=O)c2ccc(N)cc2)ccc1O` (centres undefined): the TGI was more than 100 µM in the assay on DLD-1 colon, 83.6 µM in the assay with XF 498 CNS and 30.8 µM with LXFL 529 NSCLC.
With `Cc1ccc(S(=O)(=O)Nc2cccc3[nH]c(C(F)(F)F)nc23)cc1`, in the assay on HS 578T breast, the GI50 was 0.887 µM and the TGI amounted to 38.2 µM.
In turn, `O=C(COc1ccc(/C=C2\Oc3ccccc3C2=O)cc1)Nc1nc2c(s1)CCCC2` displayed a TGI in the assay on HS 578T breast of 7.78 µM.
On to `CC[C@H](CO)Nc1nc(NCc2ccccc2)n2ncc(C(C)C)c2n1`, for which, in the assay with HS 578T breast, the GI50 was 1.59 µM and the TGI is 6.16 µM.
For the molecule `O=C(Nc1ccc(Cl)c(Cl)c1)O/N=C\c1c(Cl)ccc([N+](=O)[O-])c1Cl`, in the assay with HS 578T breast, the GI50 is 3.35 µM and the TGI stood at 38.7 µM.
As for `COc1ccc(OC)c(-c2c(C#N)c(N)nc(N3CCOCC3)c2C#N)c1`, in the assay with HS 578T breast, the GI50 was 87.4 µM and the TGI was more than 100 µM.
Take `O=C(Nc1cccc(NC(=O)Nc2cc(C(F)(F)F)ccc2Cl)c1)Nc1cc(C(F)(F)F)ccc1Cl`: in the assay on HS 578T breast, the GI50 is 2.64 µM and the TGI worked out at 8.81 µM.
Consider `O=C(/C=C/c1ccc([N+](=O)[O-])cc1)c1ccc2c3c(cccc13)CC2`, for which the TGI with HS 578T breast is more than 30.8 µM.
`Cc1c2c(nn1C)CSCc1cc(n(C)n1)CSc1cc(c3ccccc3c1)OCCCc1c(C(=O)O)n(C)c3c-2c(Cl)ccc13`: in the assay with HS 578T breast, the GI50 is 4.48 µM and the TGI turned out to be 32.7 µM.
Take `Cn1cc(C2=C(c3cccc(OCC(O)CO)c3)C(=O)NC2=O)c2ccccc21` (centres undefined): in the assay on HS 578T breast, the GI50 was more than 15.2 µM and the TGI was more than 25 µM.
With `CS[C@]12C(=O)C[C@@]3(C)[C@@H](CC[C@]3(O)C(=O)CO)[C@@H]1CCC1=CC(=O)CC[C@@]12C`, the TGI is 69.4 µM in the assay on MDA-N and more than 100 µM in the assay on HS 578T breast.
As for `CCc1ccc(NC(=O)COC(=O)c2cc([N+](=O)[O-])ccc2Sc2nnnn2C)cc1`, in the assay on HS 578T breast, the GI50 is 2.65 µM and the TGI was determined as 9.36 µM.
On to `COc1ccc(/C=N/N=C(\N)NO)c(OC)c1`, for which the TGI was more than 100 µM in the assay on DLD-1 colon and 86.3 µM in the assay with LXFL 529 NSCLC.
Consider `COc1ccc2c(c1)C(=O)c1c-2c(N(C)C)nc2ccccc12`, for which, in the assay with HS 578T breast, the GI50 is more than 100 µM and the TGI is more than 100 µM.
Regarding `CCCCN(CCCC)c1ccc(C(=N)c2ccc(N(CCCC)CCCC)cc2)cc1`, in the assay with HS 578T breast, the GI50 is 0.539 µM and the TGI was found to be 1.58 µM.
Take `C=C1C(=O)OC2C1C(OC(=O)/C(C)=C/C)CC(O)(CCl)C1C(O)C3OC3(C)C21O` (centres undefined): the TGI with MDA-N and with HS 578T breast was more than 50 µM in each case.
For `COc1ccc(C(=O)c2cc3c(N)c(C(=O)Nc4cccc5ccccc45)sc3nc2C)cc1`, in the assay on HS 578T breast, the GI50 is 0.198 µM and the TGI is more than 50 µM.
With `Nc1[nH]nc2nc(-c3cccs3)cc(C(F)(F)F)c12`, in the assay with HS 578T breast, the GI50 was more than 25 µM and the TGI was more than 25 µM.
As for `O=C(Nc1ccc(Cl)cc1)Nc1ccc(Nc2nncc3ccccc23)cc1`, in the assay with HS 578T breast, the GI50 was 3.83 µM and the TGI amounted to 27.7 µM.
Turning to `CC(=O)C1C(=O)C(=O)N(c2ccccc2C(C)C)C1=O` (centres undefined), the TGI with XF 498 CNS and with LXFL 529 NSCLC was more than 100 µM throughout.
Take `CC1=C(CO)C(=O)O[C@@H]([C@@H](C)[C@H]2CC[C@H]3[C@@H]4C[C@@H](O)[C@@]5(O)CC=CC(=O)[C@]5(C)[C@H]4CC[C@]23C)C1`: the TGI in the assay with MDA-N and in the assay on HS 578T breast was more than 100 µM in each case.
For the molecule `O=C1c2ccccc2-c2c1c1ccccc1c(=O)n2CCN1CCOCC1`, in the assay with HS 578T breast, the GI50 is more than 100 µM and the TGI was more than 100 µM.
For `C=C1C(=O)OC2/C=C(/C)C(OC(C)=O)CC(O)/C(C)=C\C(OC(=O)/C(C)=C\C)C12` (centres undefined), the TGI in the assay on MDA-N and with HS 578T breast was more than 100 µM in each case.
Take `COc1ccc(C2SC(C)C(=O)N2NC(=O)C(O)c2ccccc2)cc1OC` (centres undefined): in the assay with HS 578T breast, the GI50 was more than 100 µM and the TGI is more than 100 µM.
`C=C1c2[nH]c3c([N+](=O)[O-])c(OC)ccc3c2CCN1C(C)=O`: the TGI was 38.4 µM with DLD-1 colon and more than 100 µM with LXFL 529 NSCLC.
For the molecule `CCOc1cc2ncc(C#N)c(Nc3ccc(OCc4ccccn4)c(Cl)c3)c2cc1NC(=O)/C=C/CN(C)C`, in the assay with HS 578T breast, the GI50 was 0.54 µM and 0.351 µM; the TGI is 66.6 µM and > 5.76 µM.
Take `CC1(C)[C@@H](OC(N)=O)[C@H]2O[C@H]2[C@]2(CO)[C@H]3CC[C@]4(C)[C@@H](c5ccc(=O)oc5)[C@@H](Cl)C[C@]4(O)C3=CC[C@@H]12`: in the assay on HS 578T breast, the GI50 is 0.00524 µM and the TGI turned out to be 0.0207 µM.
As to `Nc1nc(Nc2ccc(C3CCC(N4CCOCC4)CC3)cc2)nn1-c1ccccn1` (centres undefined), in the assay with HS 578T breast, the GI50 was 1.64 µM and the TGI was 7.41 µM.
Turning to `C1CN(SSN2CCOCC2)CCO1`, in the assay with HS 578T breast, the GI50 is 30.3 µM and the TGI was more than 100 µM.
Turning to `NC(=S)N/N=C/c1ncccc1N`, the TGI in the assay with MDA-N was more than 10 µM. Further, in the assay with HS 578T breast, the GI50 is 37.5 µM and the TGI was more than 100 µM.
For `O=S1(=O)OCCOS(=O)(=O)C1Cc1ccccc1`, the TGI in the assay with DLD-1 colon and in the assay on XF 498 CNS was more than 100 µM in each case.
